The record followed here is patent US11485728B2, “Small molecules for the treatment of autoimmune diseases and cancer” (Athos Therapeutics, Inc., priority 2020, dated 2022).

The structures appear in SMILES notation.

The nature of series [1]: In-vitro half-life in rat liver microsomes. Type of series: in vitro ADME. The following applies: Rat liver microsomes 0.5 mg/mL; 1 μg/mL drug; NRS; read-out: Metabolic Half-life. On the procedure:
In each of the species (human, rat, mouse) of liver matrix to be tested, a working concentration of 2 μg/mL was prepared of each test article from the 0.5 mg/mL DMSO stock solution by adding 3 μL of 0.5 mg/mL test article stock solution to 747 μL of the 1 mg/mL liver matrix. Incubation was performed at 37±2° C. with gentle, continuous mixing in shaking water bath in 2.0 mL-well capacity 96-Deepwell plates (96-DWP). Samples were retrieved in duplicate at the following time points: 0, 5, 10, 15, 30 and 60 minutes. The final mixture contained 1 μg/mL of drug and 0.5 mg/mL of liver matrix. First, 50 μL of test articles in liver matrix was added to the 96-DWP and pre-warmed the mixture in the 96-DWP for 2 minutes in the 37° C. water bath. The enzymatic reaction was started by the addition of 50 μL of the corresponding 2× NADPH regenerating system (NRS) cofactor solution to all sample wells and stopped by the addition of 300 μL of stop solution (acetonitrile containing 10 ng/mL Tolbutamide as an internal standard (I.Std.). The samples were agitated for 10 minutes and then centrifuged for 20 minutes at 4500 rpm. 25 μL of supernatant was diluted with 475 μL acetonitrile containing I. Std. into a new 96-DWPs for LC-MS/MS analysis.
Half-life calculations were generated and calculated by Graphpad Prism® software. The half-life of test compound was calculated based on the first-order reaction kinetics. The data was transformed to linear regression (y=log(y) where “y” axis represents the % compound remaining at any given time with respect to time 0 minutes; “x” axis represents time in minutes) in order to calculate the half-life.
A comparison of metabolic stability in time-course incubation experiments in varying species of liver can provide information of pharmacokinetic properties of drugs attributable to species-related differences in hepatic metabolism. The results of these experiments often assist in further applications such as assessing in vitro metabolite profiling and choosing relevant species for toxicology studies based on similarities relative to the metabolic stability to the human profile. For these experiments, the test compound was tested in parallel with a positive control, Dasatinab, in an enzymatic reaction solution of each species (human and rat) of liver microsomes containing a NADPH regenerating system (NRS). The final mixture contained 1 μg/mL of drug and 0.5 mg/mL of liver matrix. Incubations were performed at 37±2° C. with gentle, continuous mixing in shaking water bath in 96-Deep well plates. The stability of the test compound is monitored using fast, specific and sensitive LC/MS/MS analysis.
A general note: Liver microsomes are vesicles of endoplasmic reticulum, rich in cytochrome P450 enzymes.

The target of series [2] is T1, CYP2C8 (Homo sapiens, UniProt P10632).
T1 construct: from tissue; host or cells: pooled human liver microsomes
T1 sequence (P10632 1-490): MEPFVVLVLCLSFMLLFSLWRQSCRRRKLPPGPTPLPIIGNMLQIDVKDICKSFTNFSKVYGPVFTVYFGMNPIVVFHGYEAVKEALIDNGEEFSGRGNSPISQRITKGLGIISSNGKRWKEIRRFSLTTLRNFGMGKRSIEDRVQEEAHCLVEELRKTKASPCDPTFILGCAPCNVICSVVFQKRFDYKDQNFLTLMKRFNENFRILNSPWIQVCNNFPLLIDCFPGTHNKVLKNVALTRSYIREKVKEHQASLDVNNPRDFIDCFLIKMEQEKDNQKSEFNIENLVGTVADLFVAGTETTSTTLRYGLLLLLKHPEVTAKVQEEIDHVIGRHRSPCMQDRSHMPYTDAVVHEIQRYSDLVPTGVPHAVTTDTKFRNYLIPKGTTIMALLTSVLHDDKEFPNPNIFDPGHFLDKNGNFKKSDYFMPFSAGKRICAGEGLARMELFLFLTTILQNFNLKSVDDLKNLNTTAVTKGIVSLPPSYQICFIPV
Put plainly: CYP-direct inhibition, CYP2C8. Type of series: in vitro ADME. On the procedure:
Many drugs inhibit cytochrome P450 enzymes to cause clinically significant changes in the pharmacokinetics of other drugs. In vitro cytochrome P450 inhibition, can provide crucial information in evaluating potential clinical drug-drug interactions and is useful for focusing in vivo tests to areas of concern. The cytochrome P450 inhibition assay was developed by preparing a working cocktail solution consisting of six probe substrates 10 μM ethoxy-resorufin (CYP1A2), 100 μM rosiglitazone (CYP2C8), 50 μM diclofenac (CYP2C9), 300 μM S-mephenytoin (CYP2C19), 50 μM dextromethorphan (CYP2D6), and 20 μM midazolam (CYP3A4). A mixture solution consists of 140 uL of 0.286 mg/mL of pooled human liver microsome working solution and 20 uL working solutions of test articles, standard control inhibitors, or positive control placebo and 20 uL of substrate cocktail mixture working solution was prepared. The mixture solution was pre-warm in a gentle shaking bath at 37±2° C. for 5 minutes. The enzymatic reaction started by adding 20 uL of NRS working solution to the mixture solution and incubated for 10 minutes at 37±2° C. To stop the reaction, an addition of 400 μL cold stop solution (acetonitrile containing 50 ng/mL Tolbutamide as an internal standard (I.Std.) was added to the mixture solution. The final concentration of test article, inhibitors, substrates, and cofactors are noted in Table 0.1 below. Two individual samples were prepared for each test compound. The extracted samples were vortexed and then centrifuged at 4500 rpm for 7 minutes using Eppendorf Centrifuge 5910R. 200 uL of supernatant was diluting with 200 uL of 50% Methanol into 96-DW plate for LC/MS/MS analysis
Concentration-response plots are used to determine the effects of an inhibitor on an enzymatic reaction. A typical concentration-response plot provides fractional activity (Y axis) is plotted as a function of log inhibitor concentration (X axis). The data are fitted using a standard Sigmoidal dose-response equation which is also called a […] logistic equation. The concentration of compound that results in 50% inhibition of maximal activity is termed as the IC50 (inhibitor concentration yielding 50% inhibition). IC50 value is calculated using Prism GraphPad software, version 9. […].
Cytochrome P450 inhibition of a drug is a key factor in determining pharmacokinetic drug-drug interactions. The objective of this study was to evaluate the inhibition potential of G9a inhibitors on six (6) major human cytochrome P450 enzymes, including CYP1A2, CYP2C8, CYP2C9, CYP2C19, CYP2D6, and CYP3A4. Inhibition was determined by using a substrate cocktail and analyzing the rate of specific metabolites formation. The cytochrome P450 inhibition assay was developed using a cocktail consisting of six (6) probe substrates ethoxy-resorufin (CYP1A2), rosiglitazone (CYP2C8), diclofenac (CYP2C9), S-mephenytoin (CYP2C19), dextromethorphan (CYP2D6), and midazolam (CYP3A4). The cocktail was incubated in human liver microsome with NADPH regenerating system (NRS) in a shaking bath at 37±2° C. The formation of specific metabolites was monitored by LC/MS/MS. Test compound was added to the cocktail-liver microsome mixture at varying concentrations and its effect on cytochrome P450 activity was determined by analyzing the rate of specific metabolite formation. The percent inhibition was calculated and plotted with reference to the concentration, and the IC50 value for inhibition was derived by fitting the data with a using log(inhibitor) vs. normalized response with variable slope least squares fit by Graphpad Prism® software. […].

As a reminder, the half-life is how long it takes for the measured level to halve. One may read the IC50 as the concentration needed to halve the response being measured. Read a low IC50 as higher potency. Turning to `COc1cc2c(Nc3ccncc3)nc(-n3ccnc3)nc2cc1OCCCN1CCCC1` [Compound 130, 2-(1H-imidazol-1-yl)-6-methoxy-N-(pyridin-4-yl)-7-(3-(pyrrolidin-1-yl)propoxy)quinazolin-4-amine], the half-life at 1 μg/mL in series [1] was more than 1 h. Further, the IC50 in series [2] was 4.66 µM.

Turning to `COc1cc2c(NC3CCN(C(C)C)CC3)nc(-n3ccnc3)nc2cc1OCCCN1CCCC1` [Compound 156, 2-(1H-imidazol-1-yl)-N-(1-isopropylpiperidin-4-yl)-6-methoxy-7-(3-(pyrrolidin-1-yl)propoxy)quinazolin-4-amine], the half-life at 1 μg/mL in series [1] is more than 1 h. The same molecule showed an IC50 in series [2] of more than 100 µM.

`COc1cc2c(NC3CCN(C(C)C)CC3)nc(-n3cccn3)nc2cc1OCCCN1CCCC1` [Compound 157, N-(1-isopropylpiperidin-4-yl)-6-methoxy-2-(1H-pyrazol-1-yl)-7-(3-(pyrrolidin-1-yl)propoxy)quinazolin-4-amine]: the half-life at 1 μg/mL in series [1] was more than 1 h. The concentration for half-maximal inhibition (IC50) in series [2] is more than 100 µM.

Turning to `COc1cc2c(N[C@H]3CCCNC3)nc(N3CCCC3)nc2cc1OCCCN1CCCC1` [Compound 158, (S)-6-methoxy-N-(piperidin-3-yl)-2-(pyrrolidin-1-yl)-7-(3-(pyrrolidin-1-yl)propoxy)quinazolin-4-amine], the half-life at 1 μg/mL in series [1] turned out to be 0.55 h. For the same molecule, in series [2], the IC50 is more than 100 µM.

Take `COc1cc2c(N[C@@H]3CCCNC3)nc(N3CCCC3)nc2cc1OCCCN1CCCC1` [Compound 159, (R)-6-methoxy-N-(piperidin-3-yl)-2-(pyrrolidin-1-yl)-7-(3-(pyrrolidin-1-yl)propoxy)quinazolin-4-amine]: the half-life at 1 μg/mL in series [1] stood at 0.555 h. In series [2], this molecule yielded a half-inhibitory concentration (IC50) of more than 100 µM.

Consider `COc1cc2c(NC3CCOCC3)nc(N3CCCC3)nc2cc1OCCCN1CCCC1` [Compound 164, 6-methoxy-2-(pyrrolidin-1-yl)-7-(3-(pyrrolidin-1-yl)propoxy)-N-(tetrahydro-2H-pyran-4-yl)quinazolin-4-amine], for which, in series [1], the half-life at 1 μg/mL is more than 1 h. The same molecule had an IC50 in series [2] of 91.8 µM.

`COc1cc2c(NC3CCOCC3)nc(N3CCC3)nc2cc1OCCCN1CCCC1` [Compound 174, 2-(azetidin-1-yl)-6-methoxy-7-(3-(pyrrolidin-1-yl)propoxy)-N-(tetrahydro-2H-pyran-4-yl)quinazolin-4-amine]: the half-life at 1 μg/mL in series [1] is more than 1 h. The same molecule returned an IC50 in series [2] of more than 100 µM.

As for `COc1cc2c(NC3CCOCC3)nc(N3CCOCC3)nc2cc1OCCCN1CCCC1` [Compound 195, 6-methoxy-2-morpholino-7-(3-(pyrrolidin-1-yl)propoxy)-N-(tetrahydro-2H-pyran-4-yl)quinazolin-4-amine], in series [1], the half-life at 1 μg/mL was more than 1 h. For the same molecule, the IC50 in series [2] was more than 100 µM.

Take `COc1cc2c(NC3CCOCC3)nc(N3CCS(=O)(=O)CC3)nc2cc1OCCCN1CCCC1` [Compound 196, 4-(6-methoxy-7-(3-(pyrrolidin-1-yl)propoxy)-4-((tetrahydro-2H-pyran-4-yl)amino)quinazolin-2-yl)thiomorpholine 1,1-dioxide]: the half-life at 1 μg/mL in series [1] was more than 1 h. Moreover, the IC50 in series [2] was more than 100 µM.

On to `COc1cc2c(NC3CCN(C(C)C)CC3)nc(N3CCC3)nc2cc1OCCCN1CCCC1` [Compound 234, 2-(azetidin-1-yl)-N-(1-isopropylpiperidin-4-yl)-6-methoxy-7-(3-(pyrrolidin-1-yl)propoxy)quinazolin-4-amine], for which the half-life at 1 μg/mL in series [1] was more than 1 h. The molecule further gave an IC50 in series [2] of more than 100 µM.

For the molecule `COc1cc2c(NC3CCN(C(C)C)CC3)nc(C#N)nc2cc1OCCCN1CCCC1` [Compound 235, 4-((1-isopropylpiperidin-4-yl)amino)-6-methoxy-7-(3-(pyrrolidin-1-yl)propoxy)quinazoline-2-carbonitrile], in series [1], the half-life at 1 μg/mL was more than 1 h. In series [2], this molecule showed an IC50 of more than 100 µM.

With `COc1cc2c(NC3CCOCC3)nc(N3CCN(C)CC3)nc2cc1OCCCN1CCCC1` [Compound 236, 6-methoxy-2-(4-methylpiperazin-1-yl)-7-(3-(pyrrolidin-1-yl)propoxy)-N-(tetrahydro-2H-pyran-4-yl)quinazolin-4-amine], the half-life at 1 μg/mL in series [1] was more than 1 h. For the same molecule, the concentration for half-maximal inhibition (IC50) in series [2] was more than 100 µM.

`COc1cc2c(NC3CCOCC3)nc(N3CCCN(C)CC3)nc2cc1OCCCN1CCCC1` [Compound 237, 6-methoxy-2-(4-methyl-1,4-diazepan-1-yl)-7-(3-(pyrrolidin-1-yl)propoxy)-N-(tetrahydro-2H-pyran-4-yl)quinazolin-4-amine]: in series [1], the half-life at 1 μg/mL stood at 0.367 h. Besides, 95.5 µM corresponded to half-maximal inhibition in series [2] (IC50).

`COc1cc2c(NC3CCS(=O)(=O)CC3)nc(N3CCC(F)(F)CC3)nc2cc1C#CCN1CCCC1` [Compound 248, 4-((2-(4,4-difluoropiperidin-1-yl)-6-methoxy-7-(3-(pyrrolidin-1-yl)prop-1-yn-1-yl)quinazolin-4-yl)amino)tetrahydro-2H-thiopyran 1,1-dioxide]: the half-life at 1 μg/mL in series [1] is 0.282 h. This molecule also came in with an IC50 in series [2] of 43.1 µM.

For `COc1cc2c(NC3CCN(C(C)C)CC3)nc(N3CCC(F)(F)CC3)nc2cc1OCCCN1CCCC1` [Compound 400, 2-(4,4-difluoropiperidin-1-yl)-N-(1-isopropylpiperidin-4-yl)-6-methoxy-7-(3-(pyrrolidin-1-yl)propoxy)quinazolin-4-amine, reference compound], the half-life at 1 μg/mL in series [1] was more than 1 h. The same molecule registered an IC50 in series [2] of more than 100 µM.
